In patent publication US9409915B2, “Substituted aza-bicyclic imidazole derivatives useful as TRPM8 receptor modulators” (Janssen Pharmaceutica NV, priority 2010, dated 2016):
Where a name gives a salt, the structure may show the parent alone.

Biological target: canine TRPM8 (Canis lupus familiaris, UniProt Q1A7N1)
Assay: In vitro canine TRPM8 functional assay (Ca2+-sensitive fluorescent dye, icilin activation)
Format: cell-based
Conditions: HEK293 cells stably expressing canine TRPM8, icilin-induced Ca2+ response; for IC50: eight-point concentration-response

canine TRPM8, sequence (Q1A7N1 1-1104): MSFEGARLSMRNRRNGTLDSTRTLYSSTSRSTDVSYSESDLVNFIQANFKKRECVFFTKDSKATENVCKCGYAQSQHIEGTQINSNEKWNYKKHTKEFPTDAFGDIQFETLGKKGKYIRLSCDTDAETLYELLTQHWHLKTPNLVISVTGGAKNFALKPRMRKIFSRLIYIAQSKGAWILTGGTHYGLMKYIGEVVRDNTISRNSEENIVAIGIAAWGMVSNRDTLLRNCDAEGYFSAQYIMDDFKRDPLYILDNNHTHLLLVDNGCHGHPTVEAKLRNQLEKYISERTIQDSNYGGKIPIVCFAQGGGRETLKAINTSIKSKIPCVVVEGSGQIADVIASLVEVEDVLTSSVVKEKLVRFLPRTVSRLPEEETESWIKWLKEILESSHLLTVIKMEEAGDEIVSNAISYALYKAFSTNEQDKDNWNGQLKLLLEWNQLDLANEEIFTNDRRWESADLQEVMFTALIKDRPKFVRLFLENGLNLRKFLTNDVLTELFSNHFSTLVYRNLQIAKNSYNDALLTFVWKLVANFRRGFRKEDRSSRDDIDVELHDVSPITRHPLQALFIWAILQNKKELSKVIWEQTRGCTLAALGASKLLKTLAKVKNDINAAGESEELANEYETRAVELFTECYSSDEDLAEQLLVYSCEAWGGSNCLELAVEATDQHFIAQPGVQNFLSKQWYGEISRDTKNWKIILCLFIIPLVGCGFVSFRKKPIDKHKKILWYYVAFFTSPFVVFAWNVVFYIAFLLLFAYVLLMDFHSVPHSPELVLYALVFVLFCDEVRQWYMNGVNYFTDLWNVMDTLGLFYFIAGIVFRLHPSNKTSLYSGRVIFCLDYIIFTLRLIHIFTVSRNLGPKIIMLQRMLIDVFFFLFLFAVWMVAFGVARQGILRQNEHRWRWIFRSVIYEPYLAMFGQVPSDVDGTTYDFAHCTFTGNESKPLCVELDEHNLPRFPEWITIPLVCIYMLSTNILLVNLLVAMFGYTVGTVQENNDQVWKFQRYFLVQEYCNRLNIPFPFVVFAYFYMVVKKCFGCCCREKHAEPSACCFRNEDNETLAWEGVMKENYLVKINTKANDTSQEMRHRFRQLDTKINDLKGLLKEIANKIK

COc1nc(-c2ccccc2C(F)(F)F)cc2nc(-c3c(F)c(C(C)(C)C)nn3C)[nH]c12 [Compound 78, 2-(5-tert-Butyl-4-fluoro-2-methyl-2H-pyrazol-3-yl)-4-methoxy-6-(2-trifluoromethyl-phenyl)-3H-imidazo[4,5-c]pyridine methanesulfonic acid salt]
inhibition at 0.2 µM (0.2 μM compound): 100%
IC50: 16 nM

COc1c(C(C)(C)C)nn(C)c1-c1nc2cc(-c3ccccc3C(F)(F)F)nc(OC)c2[nH]1 [Compound 79, 2-(5-tert-Butyl-4-methoxy-2-methyl-2H-pyrazol-3-yl)-4-methoxy-6-(2-trifluoromethyl-phenyl)-3H-imidazo[4,5-c]pyridine methanesulfonic acid salt]
inhibition at 0.2 µM (0.2 μM compound): 101%
IC50: 20 nM

COc1nc(-c2ccccc2C(F)(F)F)cc2nc(-c3cc(C(C)(C)C)nn3C)[nH]c12 [Compound 80, 2-(5-tert-Butyl-2-methyl-2H-pyrazol-3-yl)-4-methoxy-6-(2-trifluoromethyl-phenyl)-3H-imidazo[4,5-c]pyridine methanesulfonic acid salt]
inhibition at 0.2 µM (0.2 μM compound): 100%
IC50: 42 nM

COc1cc(-c2ccccc2C(F)(F)F)nc2nc(-c3cc(C(C)(C)C)nn3C)[nH]c12 [Compound 81, 2-(5-tert-Butyl-2-methyl-2H-pyrazol-3-yl)-7-methoxy-5-(2-trifluoromethyl-phenyl)-1H-imidazo[4,5-b]pyridine hydrochloride]
inhibition at 0.2 µM (0.2 μM compound): 67%
IC50: 120 nM

Cn1nc(C(C)(C)C)c(C#N)c1-c1nc2cc(-c3ccccc3Cl)nc(OCCO)c2[nH]1 [Compound 83, 3-tert-Butyl-5-[6-(2-chloro-phenyl)-4-(2-hydroxy-ethoxy)-3H-imidazo[4,5-c]pyridin-2-yl]-1-methyl-1H-pyrazole-4-carbonitrile]
inhibition at 0.2 µM (0.2 μM compound): 99%
IC50: 1.8 nM

Cn1nc(C(C)(C)C)c(C#N)c1-c1nc2cc(-c3ccccc3C(F)(F)F)nc(OCCO)c2[nH]1 [Compound 84, 3-tert-Butyl-5-[4-(2-hydroxy-ethoxy)-6-(2-trifluoromethyl-phenyl)-3H-imidazo[4,5-c]pyridin-2-yl]-1-methyl-1H-pyrazole-4-carbonitrile]
inhibition at 0.2 µM (0.2 μM compound): 100%
IC50: 1.9 nM

Cn1nc(C(C)(C)C)c(C#N)c1-c1nc2cc(-c3ccccc3Cl)nc(OCC(=O)O)c2[nH]1 [Compound 85, [2-(5-tert-Butyl-4-cyano-2-methyl-2H-pyrazol-3-yl)-6-(2-chloro-phenyl)-3H-imidazo[4,5-c]pyridin-4-yloxy]-acetic acid]
inhibition at 0.2 µM (0.2 μM compound): 32%

Cn1nc(C(C)(C)C)c(C#N)c1-c1nc2cc(-c3ccccc3C(F)(F)F)nc(OCC(=O)O)c2[nH]1 [Compound 86, [2-(5-tert-Butyl-4-cyano-2-methyl-2H-pyrazol-3-yl)-6-(2-trifluoromethyl-phenyl)-3H-imidazo[4,5-c]pyridin-4-yloxy]-acetic acid]
inhibition at 0.2 µM (0.2 μM compound): 49%

Cn1nc(C(C)(C)C)c(Cl)c1-c1nc2cc(-c3ccccc3Cl)nc(OCC(=O)O)c2[nH]1 [Compound 87, [2-(5-tert-Butyl-4-chloro-2-methyl-2H-pyrazol-3-yl)-6-(2-chloro-phenyl)-3H-imidazo[4,5-c]pyridin-4-yloxy]-acetic acid]
inhibition at 0.2 µM (HEK293, 0.2 μM compound): 72%
IC50: 131 nM

Cn1nc(C(C)(C)C)c(Cl)c1-c1nc2cc(-c3ccccc3C(F)(F)F)nc(OCC(=O)O)c2[nH]1 [Compound 88, [2-(5-tert-Butyl-4-chloro-2-methyl-2H-pyrazol-3-yl)-6-(2-trifluoromethyl-phenyl)-3H-imidazo[4,5-c]pyridin-4-yloxy]-acetic acid]
inhibition at 0.2 µM (0.2 μM compound): 36%

Cn1nc(C(C)(C)C)c(Cl)c1-c1nc2cc(-c3ccccc3Cl)nc(OCC(F)(F)F)c2[nH]1 [Compound 89, 2-(5-tert-Butyl-4-chloro-2-methyl-2H-pyrazol-3-yl)-6-(2-chlorophenyl)-4-(2,2,2-trifluoro-ethoxy)-3H-imidazo[4,5-c]pyridine sodium salt]
inhibition at 0.2 µM (0.2 μM compound): 100%
IC50: 0.53 nM
